In patent US9187539B2, “Compositions having antiangiogenic activity and uses thereof” (The Johns Hopkins University, priority 2005, dated 2015):
“Also recorded” adds a separate entry of the source.

What was measured:
[1] = test system: human umbilical vein endothelial cells (HUVECs); assay: HUVEC proliferation assay (WST-1), 3-day, 2,000 cells per well; format: cell-based; conditions: 3-day assay; for anti-proliferative activity in words: overall; for anti-proliferative activity (maximum or stated level), scaled so that TNP-470 = 100%: 0.01-30 μg/ml; for anti-proliferative activity in words at high peptide concentration: high/highest applied concentration (30 μg/ml where stated)
Experimental: In addition to the 2 and 4 day proliferation experiment where 5,000 cells per well were seeded, the effects of the peptides on the proliferating ability of HUVECs were also studied using cells seeded at a density of 2,000 cells per well. This lower cell seeding density allowed the experiment to be extend for an additional day without changing the cell medium. The effects of the peptides when applied to the cells for 3 consecutive days is also reported herein. The proliferation assay again involved two steps. During the first step 2,000 cells per well for a 96-well plate were seeded without any extracellular matrix substrate on the wells overnight (8 hours). The initial cell culture medium was removed using a multichannel pipetor. To synchronize the cells, the cells were serum starved for 4 hours and the candidate peptides were applied. During serum starvation the cell culture medium was changed from a “full” medium to the “basal” medium, which contained no growth factors or serum. Serum starvation for 4 hours had no effect on the proliferation of the cells. For this assay, the logarithmic scale of four different concentrations of 0.01 μg/ml, 0.1 μg/ml, 1 μg/ml and 10 μg/ml of peptide was used. In addition, a larger concentration of 30 μg/ml peptide was also applied. Each of the concentrations was again tested in quadruplicate. After the third day of peptide application the WST-1 dye was applied for approximately 2 to 4 hours (usually after 3 hours the color saturates). The proliferation was later tested on the ELISA plate reader as described for the 2 and 4 day assay. Note that the 2- and 4-day and the 3-day protocols differed in that 5,000 cells/well versus 2,000 cells/well seeded, respectively.

[2] = test system: human umbilical vein endothelial cells (HUVECs); assay: HUVEC proliferation assay (WST-1), 2- and 4-day, 5,000 cells per well; format: cell-based; conditions: for concentration-response profile in words: 2- and/or 4-day assay
Experimental: The effect of the various peptides on cell proliferation was assayed, by administering the peptides to human umbilical vein endothelial cells (HUVECs) in culture. 45 peptides belonging to four distinct families of proteins including the thrombospondin-1 containing proteins, the C-X-C chemokines, collagen derived peptides and peptides from tissue inhibitors of metalloproteinases were tested. The potency of each of the peptides was tested using the proliferation assay at 2 days and 4 days following administration of the peptides and a similar assay using a different cell density at 3 days. In the four-day experiments, the cell medium was changed after the second day of incubation and the peptide was replaced at the initial concentration together with the medium. TNP-470 is an antiangiogenic compound that was used as a positive control for assessing anti-angiogenic efficacy. The activity of each polypeptide was, therefore, expressed as a percentage of TNP-470 activity, i.e., the optical density obtained experimentally is scaled such that the negative control is 0% and the positive control is 100% as explained below (FIG. 4). Each plate included a well having HUVEC cells that received 0.1 μg/ml TNP-470. For example, a peptide having the same effect on endothelial cell proliferation would have 100% of the activity of TNP-470. Note that activity could exceed 100%. In this assay, the effects of the predicted anti-angiogenic fragments on the ability of HUVECs to proliferate was characterized. […] A commonly used methodology to test for proliferation is to monitor the viability and metabolic activity of endothelial cells, in the presence of the anti-angiogenic fragments at different concentrations and various time steps. The cell proliferation reagent WST-1 was used as a substrate/assay to measure the metabolic activity of viable cells. WST-1 is a colorimetric, non-radioactive assay and can be performed in a microplate. It is suitable for measuring cell proliferation, cell viability or cytotoxicity. The assay is based on the reduction a red tetrazolium salt, WST-1, by viable, metabolically active, cells to form the yellow formazan crystals soluble in the cell medium. […] The cells are cultured described above. Once cells have reached 80% confluence they are trypsinized and resuspended in EGM-2. The cell density is estimated using a hemocytometer. All of the endothelial cells used were from passage 4 to passage 8. The proliferation assay involved two steps. During the first step the cells, approximately 5,000 cells per well for a 96-well plate, were seeded without any extracellular matrix substrate on the wells overnight (8 hours). The initial cell culture medium was removed using a multichannel pipetor and the candidate peptides were applied. A logarithmic scale of four different concentrations of 0.01 μg/ml, 0.1 μg/ml, 1 μg/ml and 10 μg/ml of each peptide was used. Each of the concentrations was tested in quadruplicate. The viability of the cells was challenged at 2 and 4 days upon the application of the peptide. As a positive control for decreased viability, 0.1 μg/ml of TNP-470 (O-(chloro-acetyl-carbamoyl) fumagillol, a synthetic analogue of fumagillin; TNP-470 was provided by NCI, was provided along with the medium, and as a negative control for normal viability, the cells were cultured without the addition of any agent. The cells were then incubated with 10 μl per well of the red WST-1 reagent for approximately 2 to 4 hours. During this incubation period, viable cells converted, in their mitochondria, the red WST-1 to the yellow formazan crystals which dissolve in the medium. The second step of the assay involved the quantification of the changes in proliferation which was performed by measuring the change in color after lysing the cells. The samples were read using the ELISA plate reader Victor3 V (Perkin Elmer) at a wavelength of […]. The amount of color produced is directly proportional to the number of viable cells. […]

[3] = 4 days of peptide application, 0.01-10 μg/ml
[4] = 10 μg/ml peptide, 2- and 4-day assay
[5] = 2- and 4-day assay, day not specified or constant throughout the four days
[6] = 2 days of peptide application, 0.01-10 μg/ml
[7] = 2- and 4-day assay, day not specified

Sequence: AAPFLECQGRQGTCHFFAN [SEQ ID NO: 87, α4CIV CAA56943.1: 1628-1646]
- concentration-response profile in words [1]: activity increased with increasing the applied peptide concentration
- anti-proliferative activity in words [1]: similar
- anti-proliferative activity in words ([2]; 2 days of peptide application): intermediate activity

Sequence: ASWSACSVSCGGGARQRTR [SEQ ID NO: 45, Fibulin-6 CAC37630.1: 1745-1763]
- concentration-response profile in words [1]: biphasic response
- peptide concentration at which maximum activity was observed [1]: 0.1 µg/mL
- anti-proliferative activity (maximum or stated level), scaled so that TNP-470 = 100% [1]: 20%
- concentration-response profile in words [2]: biphasic activity
- peptide concentration at which maximum activity was observed ([2]; 2 days): 0.1 µg/mL
- anti-proliferative activity (maximum or stated level), scaled so that TNP-470 = 100% [2, 3]: approximately 30%

Sequence: DGRELCLDPKENWVQRVVEKFLK [SEQ ID NO: 110, IL-8/CXCL8 AAP35730.1: 72-94]
- anti-proliferative activity in words at high peptide concentration [1]: higher
- anti-proliferative activity, TNP-470 = 100% [2, 4]: 20%

Sequence: DGRKICLDPDAPRIKKIVQKKL [SEQ ID NO: 114, THBG-β/CXCL7 AAB46877.1: 100-121]
- anti-proliferative activity, TNP-470 = 100% [2, 4]: 15%

Sequence: ECLWTDMLSNFGYPGYQSKHYACI [SEQ ID NO: 155, TIMP 3 AAA21815.1: 148-171]
- anti-proliferative activity (maximum or stated level), scaled so that TNP-470 = 100% [2, 5]: 30%
- anti-proliferative activity (maximum or stated level), scaled so that TNP-470 = 100% [2, 6]: 30%

Sequence: GPWAPCSASCGGGSQSRS [SEQ ID NO: 48, Papilin NP_775733.2: 342-359]
- anti-proliferative activity (maximum or stated level), scaled so that TNP-470 = 100% [2, 5]: 30%

Sequence: GPWEDCSVSCGGGEQLRSR [SEQ ID NO: 63, SCO-spondin XP_379967.2: 3781-3799]
- anti-proliferative activity (maximum or stated level), scaled so that TNP-470 = 100% [1]: 25%
- anti-proliferative activity (maximum or stated level), scaled so that TNP-470 = 100% [2, 5]: ~15%
- anti-proliferative activity in words ([2]; 2- and 4-day assay, overall): low anti-proliferative activity

Sequence: GPWEPCSVTCSKGTRTRRR [SEQ ID NO: 49, Properdin AAP43692.1: 143-161]
- anti-proliferative activity in words at high peptide concentration [1]: significantly increased
- peptide concentration at which maximum activity was observed [2, 7]: 0.01 µg/mL
- anti-proliferative activity (maximum or stated level), scaled so that TNP-470 = 100% [2, 5]: 30%
- concentration-response profile in words [2]: biphasic response
- anti-proliferative activity (maximum or stated level), scaled so that TNP-470 = 100% [2, 3]: 20%

Sequence: GPWERCTAQCGGGIQARRR [SEQ ID NO: 60, Semaphorin 5A NP_003957.1: 660-678]
- anti-proliferative activity (maximum or stated level), scaled so that TNP-470 = 100% [1]: 35%
- peptide concentration at which maximum activity was observed [2, 7]: higher than 1 μg/ml
- anti-proliferative activity (maximum or stated level), scaled so that TNP-470 = 100% [2, 5]: 25%
- anti-proliferative activity in words ([2]; 2 days of peptide application): minimum anti-proliferative activity
- anti-proliferative activity in words ([2]; 4 days of peptide application): intermediate activity

Sequence: GPWGDCSRTCGGGVQFSSR [SEQ ID NO: 7, ADAMTS-4 CAH72146.1: 527-545]
- peptide concentration at which maximum activity was observed ([2]; 4 days): 10 µg/mL
- anti-proliferative activity (maximum or stated level), scaled so that TNP-470 = 100% [2, 3]: 35%

Sequence: GPWGECSRTCGGGVQFSHR [SEQ ID NO: 14, ADAMTS-8 Q9UP79: 534-552]
- concentration-response profile in words [1]: biphasic response
- anti-proliferative activity in words at 10 μg/ml [2, 4]: reduced
- concentration-response profile in words [2]: biphasic response
- peptide concentration at which maximum activity was observed ([2]; 2 days): 1 µg/mL
- anti-proliferative activity (maximum or stated level), scaled so that TNP-470 = 100% [2, 6]: 35%
- peptide concentration at which maximum activity was observed ([2]; 4 days): 1 µg/mL
- anti-proliferative activity (maximum or stated level), scaled so that TNP-470 = 100% [2, 3]: 30%

Sequence: KCHGHGVCNSNKN [SEQ ID NO: 1, ADAM-9 Q13443: 649-661]
- anti-proliferative activity (maximum or stated level), scaled so that TNP-470 = 100% [2, 5]: ~20%

Sequence: LCMTKSDCYQPAWYIHEGFYNLSG [SEQ ID NO: 159, reference compound]
- anti-proliferative activity in words ([2]; 2- and 4-day assay, overall): not statistically significant

Sequence: LRRFSTMPFMFCNINNVCNF [SEQ ID NO: 89, α5CIV AAC27816.1: 1510-1529]
- anti-proliferative activity in words at high peptide concentration [1]: increased even more
- anti-proliferative activity in words [1]: reproducible
- anti-proliferative activity, TNP-470 = 100% [2, 4]: 80%

Sequence: MQCHGRGVCNNRKN [SEQ ID NO: 2, ADAM-12 O43184: 662-675]
- concentration-response profile in words [1]: activity increasing as the peptide concentration increased
- anti-proliferative activity in words ([2]; 2 days of peptide application): showed activity

Sequence: NGKEICLDPEAPFLKKVIQKILD [SEQ ID NO: 95, ENA-78/CXCL5 AAP35453.1: 86-108]
- anti-proliferative activity in words at high peptide concentration [1]: high activity
- anti-proliferative activity in words [1]: reproducible over all tested concentrations
- anti-proliferative activity, TNP-470 = 100% ([2]; 0.01 μg/ml peptide, 2 days): approximately 30%

Sequence: NGKKACLNPASPMVQKIIEKIL [SEQ ID NO: 106, GRO-γ/MIP-2β/CXCL3 AAA63184.1: 79-100]
- peptide concentration at which maximum activity was observed [1]: 0.01 µg/mL
- peptide concentration at which maximum activity was observed [2, 7]: 0.01 µg/mL
- anti-proliferative activity (maximum or stated level), scaled so that TNP-470 = 100% [2, 3]: 15%

Sequence: NGKQVCLDPEAPFLKKVIQKILDS [SEQ ID NO: 98, GCP-2/CXCL6 AAH13744.1: 86-109]
- concentration-response profile in words [1]: biphasic behavior
- anti-proliferative activity in words at high peptide concentration [1]: increased
- anti-proliferative activity, TNP-470 = 100% ([2]; 0.01 μg/ml peptide, 2 days): 30%
- anti-proliferative activity in words at 10 μg/ml [2, 4]: Virtually no anti-proliferative activity
- anti-proliferative activity (maximum or stated level), scaled so that TNP-470 = 100% [2, 5]: 35%
- concentration-response profile in words [2]: biphasic behavior; also recorded: biphasic response

Sequence: NGRKACLNPASPIVKKIIEKMLNS [SEQ ID NO: 102, GRO-α/CXCL1 AAP35526.1: 80-103]
- anti-proliferative activity in words at high peptide concentration [1]: significantly increased
- anti-proliferative activity in words at 10 μg/ml [2, 4]: statistically insignificant
- anti-proliferative activity (maximum or stated level), scaled so that TNP-470 = 100% [2, 5]: 15%

Sequence: QDVFNKDGKVILLSPQAICLPKEK [SEQ ID NO: 158, reference compound]
- anti-proliferative activity in words ([2]; 2- and 4-day assay, overall): not statistically significant

Sequence: QPWGTCSESCGKGTQTRAR [SEQ ID NO: 44, Fibulin-6 CAC37630.1: 1688-1706]
- concentration-response profile in words [1]: activity increased with increasing peptide concentration
- concentration-response profile in words [2]: biphasic behavior
- peptide concentration at which maximum activity was observed ([2]; 4 days): 0.01 µg/mL
- anti-proliferative activity (maximum or stated level), scaled so that TNP-470 = 100% [2, 3]: ~40%

Sequence: SPWTKCSATCGGGHYMRTR [SEQ ID NO: 61, Semaphorin 5A NP_003957.1: 848-866]
- anti-proliferative activity in words ([2]; 2- and 4-day assay, overall): no anti-proliferative activity

Sequence: SQWSPCSRTCGGGVSFRER [SEQ ID NO: 47, Papilin NP_775733.2: 33-51]
- anti-proliferative activity in words ([2]; 2- and 4-day assay, overall): minimal anti-proliferative activity

Sequence: TSWSPCSASCGGGHYQRTR [SEQ ID NO: 62, Semaphorin 5B AAQ88491.1: 916-934]
- anti-proliferative activity (maximum or stated level), scaled so that TNP-470 = 100% [2, 5]: 10%
